Data from publication PMC10816640, “Discovery of Novel Diphenyl Acrylonitrile Derivatives That Promote Adult Rats’ Hippocampal Neurogenesis” (International Journal of Molecular Sciences, 2024).
“Also recorded” adds a separate entry of the source.

Tests used:
Assay type in all cases: in vivo, rat
[1] = tested on: newborn neural progenitor cells (differentiation into mature neurons); assay: Differentiation stage of neurogenesis: NeuN/BrdU double staining, rats sacrificed 28 days after BrdU; conditions: nine-week-old rats (n = 4), i.p. 4.0 mg/kg, Figure 9
From the text: (§1) Previous in vitro or in vivo studies mainly focused on stimulating the proliferation effect of the small molecules. In this study, a two-step protocol was employed. First, the stimulating function of the compounds on progenitor cells in the rodents’ hippocampi was examined with using bromodeoxyuridine (BrdU) labeling. Next, the potent compounds were further screened to ascertain their ability to promote the differentiation of neural progenitor cells, as confirmed by dual labeling of BrdU and NeuN (neuronal nuclear antigen).
The study employed a rat model, wherein nine-week-old rats were administered intraperitoneally with the compound at a dose of 4.0 mg/kg/day for 28 days and then treated with a pulse of BrdU. Instead of sacrificing the rats 24 h after the BrdU injections, the rats were sacrificed after another 28 days. The brains were then isolated and cryosectioned. Eight randomly selected slices were subjected to immunohistochemical staining. This staining enabled the co-localization of the BrdU-incorporated cells with the NeuN marker, enabling the definition of the compounds that could promote the differentiation of newborn neural progenitor cells into mature functional neurons.
(§2) The compounds were dissolved in reagent-grade soybean oil containing 10% ethanol to reach a drug concentration of 2.8 mg/mL. The rats in the experimental group received intraperitoneal injections of the compounds at a dose of 4.0 mg/kg/d for 28 consecutive days. As a control, the vehicle group was administered injections of reagent-grade soybean oil containing 10% ethanol. BrdU (Sigma-Aldrich, St. louis, MA, USA) solution, prepared in physiological saline at a concentration of 10 mg/mL, was administered to all rats on day 29. Each rat received two injections of BrdU at a dosage of 50 mg/kg, with a 2 h interval between injections. The rats were euthanized 24 h (or 28 days) after the final BrdU injection.
(§3) Two or four rats per group were anesthetized using pentobarbital sodium (70 mg/kg) and subsequently perfused with physiological saline. The brain tissue was carefully dissected and fixed in 4% paraformaldehyde at 4 °C for one week. Next, the brain tissue underwent dehydration using a phosphate-buffered saline (PBS) solution containing 20% to 30% sucrose. Finally, the brain tissue was cryosectioned into slices with a thickness of 30 μm, and eight slices were randomly selected for further analysis.
The differentiation process of NPCs was visualized through the utilization of the NeuN/BrdU double staining technique. Tissue sections were subjected to an incubation period in a blocking buffer at RT for 1 to 2 h. The specimens were exposed to a rabbit anti-NeuN antibody (diluted at 1:500, Abcam, Cambridge, MA, UK) and a primary antibody, BrdU (diluted at 1:500), overnight at 4 °C. Afterwards, the sections were treated with anti-mouse 488 and anti-rabbit TRITC secondary antibodies for 2 h at RT.
(§4) The data were presented as mean ± SEM (standard error of the mean) and visualized using GRAPHPAD PRISM 6 (Graphpad Software, La Jolla, CA, USA). Statistical analysis was conducted utilizing one-way analysis of variance (ANOVA) followed by a post hoc test. Subsequent to the statistical treatment, the observed discrepancies were determined to be statistically significant (p < 0.05).

[2] = tested on: progenitor cells in the rodents’ hippocampi; assay: Proliferation stage of neurogenesis: BrdU labeling, rats sacrificed 24 h after BrdU; conditions: i.p. 4.0 mg/kg/day for 28 days, BrdU pulse, vs vehicle; for proliferation-promoting activity (number of BrdU+ newborn cells): eleven-week-old rats (n = 2)
From the text: as §1
Adult rats were administered intraperitoneally with the prepared compounds at a dose of 4.0 mg/kg/day for a period of 28 days, followed by a BrdU pulse. After 24 h, the rats were sacrificed, and their brain tissues were isolated and cryosectioned. Immunohistochemical staining was performed and eight brain tissue slices were randomly selected for statistical analyzing.
Eight-week-old (or 10-week-old) SD male rats purchased from Peking University Health Science Center were acclimatized for one week at the Beijing Institute of Technology. All experimental protocols strictly adhered to the regulations governing the management of experimental animals and the animal ethics policy of the Beijing Institute of Technology.
as §2, §3
The assessment of new cell proliferation was conducted using BrdU staining. To eliminate endogenous peroxides, sections were exposed to 1% H2O2 for 30 min at RT. Cellular denaturation was achieved by treating the sections with 2 M HCl at 37 °C for 1 h, followed by rinsing in 0.1 M borate buffer (pH 8.5). Tissue sections were subjected to blocking in a solution consisting of 5% goat serum and 0.5% Triton X-100 in PBS at RT for 1–2 h. The specimens were then incubated overnight at 4 °C with a mouse primary antibody specific to BrdU (diluted at 1:500; Millipore, Billerica, MA, USA). Subsequently, the DAB kit was employed for 2 h of incubation at RT.
as §4

[3] = tested on: newborn cells in the subgranular zone; assay: BrdU+ newborn cells, rats sacrificed 28 days after BrdU; conditions: nine-week-old rats (n = 2), i.p. 4.0 mg/kg/day for 28 days, BrdU pulse, Figure 7A
Description: The study employed a rat model, wherein nine-week-old rats were administered intraperitoneally with the compound at a dose of 4.0 mg/kg/day for 28 days and then treated with a pulse of BrdU. Instead of sacrificing the rats 24 h after the BrdU injections, the rats were sacrificed after another 28 days. The brains were then isolated and cryosectioned. Eight randomly selected slices were subjected to immunohistochemical staining. This staining enabled the co-localization of the BrdU-incorporated cells with the NeuN marker, enabling the definition of the compounds that could promote the differentiation of newborn neural progenitor cells into mature functional neurons. The compounds were dissolved in reagent-grade soybean oil containing 10% ethanol to reach a drug concentration of 2.8 mg/mL. The rats in the experimental group received intraperitoneal injections of the compounds at a dose of 4.0 mg/kg/d for 28 consecutive days. As a control, the vehicle group was administered injections of reagent-grade soybean oil containing 10% ethanol. BrdU (Sigma-Aldrich, St. louis, MA, USA) solution, prepared in physiological saline at a concentration of 10 mg/mL, was administered to all rats on day 29. Each rat received two injections of BrdU at a dosage of 50 mg/kg, with a 2 h interval between injections. The rats were euthanized 24 h (or 28 days) after the final BrdU injection. Two or four rats per group were anesthetized using pentobarbital sodium (70 mg/kg) and subsequently perfused with physiological saline. The brain tissue was carefully dissected and fixed in 4% paraformaldehyde at 4 °C for one week. Next, the brain tissue underwent dehydration using a phosphate-buffered saline (PBS) solution containing 20% to 30% sucrose. Finally, the brain tissue was cryosectioned into slices with a thickness of 30 μm, and eight slices were randomly selected for further analysis. The assessment of new cell proliferation was conducted using BrdU staining. To eliminate endogenous peroxides, sections were exposed to 1% H2O2 for 30 min at RT. Cellular denaturation was achieved by treating the sections with 2 M HCl at 37 °C for 1 h, followed by rinsing in 0.1 M borate buffer (pH 8.5). Tissue sections were subjected to blocking in a solution consisting of 5% goat serum and 0.5% Triton X-100 in PBS at RT for 1–2 h. The specimens were then incubated overnight at 4 °C with a mouse primary antibody specific to BrdU (diluted at 1:500; Millipore, Billerica, MA, USA). Subsequently, the DAB kit was employed for 2 h of incubation at RT. The differentiation process of NPCs was visualized through the utilization of the NeuN/BrdU double staining technique. Tissue sections were subjected to an incubation period in a blocking buffer at RT for 1 to 2 h. The specimens were exposed to a rabbit anti-NeuN antibody (diluted at 1:500, Abcam, Cambridge, MA, UK) and a primary antibody, BrdU (diluted at 1:500), overnight at 4 °C. Afterwards, the sections were treated with anti-mouse 488 and anti-rabbit TRITC secondary antibodies for 2 h at RT. The data were presented as mean ± SEM (standard error of the mean) and visualized using GRAPHPAD PRISM 6 (Graphpad Software, La Jolla, CA, USA). Statistical analysis was conducted utilizing one-way analysis of variance (ANOVA) followed by a post hoc test. Subsequent to the statistical treatment, the observed discrepancies were determined to be statistically significant (p < 0.05).

SMILES | proliferative activity over the longer 28 day period (number of BrdU+ cells) [3] | proliferation-promoting activity (number of BrdU+ newborn cells) ([2]; Figures 3-6, 4 mg/kg/day) | proliferation-promoting activity (number of BrdU+ newborn cells) ([2]; Figures 3-6) | further results
CC(C)CCNc1ncccc1C(=O)N1CCN(Cc2ccccc2)CC1 [NSI-189, reference compound] | – | – | – | neurogenesis-promoting activity (number of NeuN+ and BrdU+ cells), differentiation stage [1]: no significant neurogenesis-promoting activity; proliferation-promoting activity (number of BrdU+ positive cells) ([2]; nine-week-old rats (n = 4), Figure 8): inactive
CC(C)C(=O)Nc1ccc(C/C=C/c2ccc3c(c2)OCO3)cc1 [18b, (E)-N-(4-(3-(benzo[d][1, 3]dioxol-5-yl)allyl)phenyl)isobutyramide] | did not exhibit significant proliferative activity | significant proliferation-promoting activity; also recorded: maintained the same proliferative activity as 9b | – | –
COc1cc(/C=C/c2ccc(NC(=O)c3ccccc3)c(F)c2)cc(OC)c1 [12f, (E)-N-(4-(3,5-dimethoxystyryl)-2-fluorophenyl)benzamide] | – | not and adversely affected the proliferative activity | – | –
CC(=O)Nc1ccc(CN(C)Cc2ccc3c(c2)OCO3)cc1 [36a, N-(4-(((benzo[d][1, 3]dioxol-5-ylmethyl)(methyl)amino)methyl)phenyl)acetamide] | – | – | abolished the activity | –
CN(C)S(=O)(=O)Cc1ccc(/C=C/c2ccc3c(c2)OCO3)cc1 [8j, (E)-1-(4-(2-(benzo[d][1, 3]dioxol-5-yl)vinyl)phenyl)-N,N-dimethylmethanesulfonamide] | – | significant proliferation-promoting activity; also recorded: greater propensity for enhancing activity | – | –
COc1cc(C/C=C/c2ccc(NC(=O)C(C)C)cc2)cc(OC)c1 [24b, (E)-N-(4-(3-(3,5-dimethoxyphenyl)prop-1-en-1-yl)phenyl)isobutyramide] | did not exhibit significant proliferative activity | – | – | –
O=S(=O)(Nc1ccc(/C=C/c2ccc3c(c2)OCO3)cc1)C1CC1 [8k, (E)-N-(4-(2-(benzo[d][1, 3]dioxol-5-yl)vinyl)phenyl)cyclopropanesulfonamide] | could promote the proliferation of progenitors | significant proliferation-promoting activity; also recorded: greater propensity for enhancing activity | – | –
N#CC1(C(=O)Nc2ccc(/C=C/c3ccc4c(c3)OCO4)cc2)CC1 [8e, (E)-N-(4-(2-(benzo[d][1, 3]dioxol-5-yl)vinyl)phenyl)-1-cyanocyclopropane-1-carboxamide] | – | – | did not display significant activity | –
CC(C)C(=O)NCc1ccc(/C=C/c2ccc3c(c2)OCO3)cc1 [42b, (E)-N-(4-(2-(benzo[d][1, 3]dioxol-5-yl)vinyl)benzyl)isobutyramide] | remained devoid of proliferative activity | not and loss of activity | – | –
CN(C)C(=O)Nc1ccc(/C=C/c2ccc3c(c2)OCO3)cc1 [8c, (E)-3-(4-(2-(benzo[d][1, 3]dioxol-5-yl)vinyl)phenyl)-1,1-dimethylurea] | could promote the proliferation of progenitors | – | significant proliferation-promoting activity | –
O=C(Nc1ccc(/C=C/c2ccc3c(c2)OCO3)cc1)C1CCC1 [8d, (E)-N-(4-(2-(benzo[d][1, 3]dioxol-5-yl)vinyl)phenyl)cyclobutanecarboxamide] | could promote the proliferation of progenitors | significant proliferation-promoting activity; also recorded: greater propensity for enhancing activity | – | –
COc1cc(/C=C/c2ccc(NC(=O)C(C)C)cc2)cc(OC)c1 [9b, (E)-N-(4-(3,5-dimethoxystyryl)phenyl)isobutyramide] | – | – | significant proliferation-promoting activity | –
CC(C)C(=O)Nc1ccc(/C=C/Cc2ccc3c(c2)OCO3)cc1 [23b, (E)-N-(4-(3-(benzo[d][1, 3]dioxol-5-yl)prop-1-en-1-yl)phenyl)isobutyramide] | did not exhibit significant proliferative activity | significant proliferation-promoting activity; also recorded: maintained the same proliferative activity as 9b | – | –
CS(=O)(=O)Nc1ccc(/C=C/Cc2ccc3c(c2)OCO3)cc1 [23i, (E)-N-(4-(3-(benzo[d][1, 3]dioxol-5-yl)prop-1-en-1-yl)phenyl)methanesulfonamide] | – | – | decreased | –
